# Experiments:
# [1] = target: T1, BRAF-GTP-KRAS-G12C complex (Homo sapiens, UniProt P01116+P62937, G12C); test: KRAS-BRAF complex disruption through competition with CYPA-compound by TR-FRET; conditions: biochemical BRAF-KRAS G12C-GTP disruption assay EC50, with CYPA
# T1 construct: 50 nM of His6-KRas G12C-GTP (1-169); 500 nM of tagless CypA (1-165)
# Method in brief: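 His6-KRAS G12C-GTP (1-169, 50 nM) with tagless CypA (1-165, 500 nM) was incubated with compound for 3 h at room temperature in pH 7.3 Hepes/NaCl/MgCl2 buffer containing GST-BRAF RBD. Anti-His Eu (10 nM) and anti-GST APC (50 nM) were then added for 1.5 h, and the 665/615 nm TR-FRET ratio was read. EC50 from 4-parameter fit; for specificity, wild-type KRAS replaced G12C, and CypA was omitted to test presenter dependence.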
# cyclophilin A (CYPA) = cyclophilin A (CYPA) (Homo sapiens, UniProt P62937); test: CYPA-compound binary complex formation by SPR; conditions: read-out: CYPA Binding Affinity
# Method in brief: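 CypA-Avi captured on a Biotin CAPture chip (4 μg/ml), reference flow cell subtracted. Compounds injected as 10-point 2-fold dilutions from 50 μM in HBS-P+ pH7.4 with 2% DMSO; 60 s association and 60 s dissociation, solvent-corrected. Affinity obtained by steady-state fitting.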
# pERK in H358 cells = test: pERK inhibition in H358 cells; type: cell-based, human; conditions: 4 hours treatment, read-out: Cellular pERK inhibition
# Method in brief: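 Human lung cancer H358 cells in RPMI/10% FBS were exposed to compound or DMSO for 4 h. Fixed and permeabilized cells were stained overnight at 4 C with anti-phospho-ERK1/2 (Thr202/Tyr204). Near-infrared imaging read the pERK signal at 800 nm, with DRAQ5 at 700 nm.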
EC50 [1],Kd (cyclophilin A (CYPA)),IC50 (pERK in H358 cells),SMILES
≤ 0.5 µM,5 to 15 µM,1 to 10 µM,"CC(C)[C@@H](C(=O)N[C@H]1Cc2cc(O)cc(c2)-c2ccc3c(C(C)(C)C#N)cn(c3c2)CC(C(F)F)COC(=O)[C@@H]2CCCN(N2)C1=O)N(C)C(=O)C1CN(C(=O)CCl)C1 (single isomer, unassigned) [Compound 37]"
≤ 0.5 µM,5 to 15 µM,1 to 10 µM,CC(C)C(C(=O)NC1Cc2cc(O)cc(c2)-c2ccc3c(C(C)(C)C#N)cn(c3c2)CC(C)(C)COC(=O)C2CCCN(N2)C1=O)N1CCC2(CN(C(=O)CCl)C2)C1=O (stereo not drawn) [Compound 44]
≤ 0.5 µM,≤ 5 µM,≤ 1 µM,CC(C)[C@@H](C(=O)N[C@H]1Cc2cc(O)cc(c2)-c2ccc3c(C(C)(C)C#N)c(C#N)n(c3c2)C[C@H](C)COC(=O)[C@@H]2CCCN(N2)C1=O)N(C)C(=O)C1CN(C(=O)CCl)C1 [Compound 85]
≤ 0.5 µM,5 to 15 µM,1 to 10 µM,C=CC(=O)N1CCC(C(=O)N(C)C(C(=O)NC2Cc3cc(O)cc(c3)-c3ccc4c(c3)c(c(C#N)n4CCOC)CC(C)(C)COC(=O)C3CCCN(N3)C2=O)C(C)C)C1 (stereo not drawn) [Compound 400]
≤ 0.5 µM,5 to 15 µM,1 to 10 µM,CC(C)[C@@H](C(=O)N[C@H]1Cc2cc(O)cc(c2)-c2ccc3c(C(C#N)C4CC4)cn(c3c2)C[C@H](C)COC(=O)[C@@H]2CCCN(N2)C1=O)N(C)C(=O)C1CN(C(=O)CCl)C1 (stereo partly drawn) [Compound 78]
≤ 0.5 µM,> 15 µM,1 to 10 µM,CC(C)[C@@H](C(=O)N[C@H]1Cc2cc(O)cc(c2)-c2ccc3c(-c4ccccc4Cl)cn(c3c2)CC(C)(C)COC(=O)[C@@H]2CCCN(N2)C1=O)N(C)C(=O)C1CN(C(=O)CCl)C1 [Compound 241]
≤ 0.5 µM,≤ 5 µM,1 to 10 µM,"CC(C)C(C(=O)NC1Cc2cc(O)cc(c2)-c2ccc3c(C(C)(C)C#N)cn(c3c2)CC(Cl)COC(=O)C2CCCN(N2)C1=O)N(C)C(=O)C1CN(C(=O)CCl)C1 (single isomer, unassigned) [Compound 41]"
0.5 to 5 µM,5 to 15 µM,≤ 1 µM,C=CC(=O)N1CCC(C(=O)N(C)C(C(=O)NC2Cc3cc(O)cc(c3)-c3ccc4cc(-c5ccccc5COC)n(c4c3)CC(C)(C)COC(=O)C3CCCN(N3)C2=O)C(C)C)C1 (stereo not drawn) [Compound 90]
≤ 0.5 µM,5 to 15 µM,> 10 µM,"CC(C)[C@@H](C(=O)N[C@H]1Cc2cc(O)cc(c2)-c2ccc3c(C(C)(C)C#N)cn(c3c2)CC(CO)COC(=O)[C@@H]2CCCN(N2)C1=O)N(C)C(=O)C1CN(C(=O)CCl)C1 (single isomer, unassigned) [Compound 22]"
≤ 0.5 µM,5 to 15 µM,≤ 1 µM,CC1COC(=O)C2CCCN(N2)C(=O)C(NC(=O)C(C(C)C)N(C)C(=O)C2CN(C(=O)CCl)C2)Cc2cc(O)cc(c2)-c2ccc3c(-c4cccc(C#N)c4)cn(c3c2)C1 (stereo not drawn) [Compound 46]
≤ 0.5 µM,5 to 15 µM,1 to 10 µM,CC(C)[C@@H](C(=O)N[C@H]1Cc2cc(O)cc(c2)-c2ccc3c(c2)N(CC(C)(C)COC(=O)[C@@H]2CCCN(N2)C1=O)C(=O)C3)N(C)C(=O)C1CN(C(=O)CCl)C1 [Compound 177]
≤ 0.5 µM,> 15 µM,≤ 1 µM,CCc1c(-c2ccccc2OC)n2c3cc(ccc13)-c1cc(O)cc(c1)C[C@H](NC(=O)[C@H](C(C)C)N(C)C(=O)C1CN(C(=O)CCl)C1)C(=O)N1CCC[C@H](N1)C(=O)OC[C@@H](C)C2 [Compound 86]
≤ 0.5 µM,≤ 5 µM,1 to 10 µM,CON=C(C)c1cn2c3cc(ccc13)-c1cc(O)cc(c1)CC(NC(=O)C(C(C)C)N(C)C(=O)C1CN(C(=O)CCl)C1)C(=O)N1CCCC(N1)C(=O)OCC(C)C2 (stereo not drawn) [Compound 73]
0.5 to 5 µM,5 to 15 µM,> 10 µM,CC(C)[C@@H](C(=O)N[C@H]1Cc2cc(O)cc(c2)-c2cc3c(ccn3CC(C)(C)COC(=O)[C@@H]3CCCN(N3)C1=O)cn2)N(C)C(=O)C1CN(C(=O)CCl)C1 [Compound 178]
≤ 0.5 µM,≤ 5 µM,≤ 1 µM,C=CC(=O)N1CCC(C(=O)N(C)C(C(=O)NC2Cc3cc(O)cc(c3)-c3ccc4c(c3)c(c(C#N)n4CC)CC(C)(C)COC(=O)C3CCCN(N3)C2=O)C2CCCC2)C1 (stereo not drawn) [Compound 397]
≤ 0.5 µM,> 15 µM,1 to 10 µM,CC(C)[C@@H](C(=O)N[C@H]1Cc2cc(O)cc(c2)-c2ccc3c(C4CCC4)cn(c3c2)C[C@H](C)COC(=O)[C@@H]2CCCN(N2)C1=O)N(C)C(=O)C1CN(C(=O)CCl)C1 [Compound 118]
≤ 0.5 µM,5 to 15 µM,> 10 µM,"CC(C)C(C(=O)NC1Cc2cc(O)cc(c2)-c2ccc3c(C(C)(C)C#N)cn(c3c2)CC(F)COC(=O)C2CCCN(N2)C1=O)N(C)C(=O)C1CN(C(=O)CCl)C1 (single isomer, unassigned) [Compound 25]"
≤ 0.5 µM,> 15 µM,≤ 1 µM,CCc1cn2c3cc(ccc13)-c1cc(O)cc(c1)CC(NC(=O)C(C(C)C)N(C)C(=O)C1CN(C(=O)CCl)C1)C(=O)N1CCCC(N1)C(=O)OCC(C)(C)C2 (stereo not drawn) [Compound 99]
> 5 µM,> 15 µM,> 10 µM,C=CC(=O)N1CCN(C(C(=O)NC2Cc3cc(O)cc(c3)-c3ccc4c(C(C)(C)C#N)cn(c4c3)CC(C)(C)COC(=O)C3CCCN(N3)C2=O)C(C)C)C(=O)C1 (stereo not drawn) [Compound 14]
≤ 0.5 µM,5 to 15 µM,1 to 10 µM,CC(C)C(C(=O)NC1Cc2cc(O)cc(c2)-c2ccc3c(C(C)(C)C#N)cn(c3c2)CC(CF)COC(=O)C2CCCN(N2)C1=O)N(C)C(=O)C1CN(C(=O)CCl)C1 (mixture of isomers) [Compound 34]
≤ 0.5 µM,5 to 15 µM,≤ 1 µM,CC1COC(=O)C2CCCN(N2)C(=O)C(NC(=O)C(C(C)C)N(C)C(=O)C2CN(C(=O)CCl)C2)Cc2cc(O)cc(c2)-c2ccc3c4c(n(c3c2)C1)COCC4(C)C#N (mixture of isomers) [Compound 62]
≤ 0.5 µM,5 to 15 µM,1 to 10 µM,COc1ccc(-c2cn3c4cc(ccc24)-c2cc(O)cc(c2)C[C@H](NC(=O)[C@H](C(C)C)N(C)C(=O)C2CN(C(=O)CCl)C2)C(=O)N2CCC[C@H](N2)C(=O)OC[C@@H](C)C3)cc1 [Compound 50]
0.5 to 5 µM,5 to 15 µM,1 to 10 µM,C#CCOCc1cc2ccc3cc2n1C[C@H](C)COC(=O)[C@@H]1CCCN(N1)C(=O)[C@@H](NC(=O)[C@H](C(C)C)N(C)C(=O)C1CN(C(=O)CCl)C1)Cc1cc(O)cc-3c1 [Compound 91]
≤ 0.5 µM,5 to 15 µM,1 to 10 µM,Cc1c(C#N)c2ccc3cc2n1CC(C)(C)COC(=O)[C@@H]1CCCN(N1)C(=O)[C@@H](NC(=O)[C@H](C(C)C)N(C)C(=O)C1CN(C(=O)CCl)C1)Cc1cc(O)cc-3c1 [Compound 106]
> 5 µM,> 15 µM,> 10 µM,C=CC(=O)N1CCC1C(=O)N(C)C(C(=O)NC1Cc2cc(O)cc(c2)-c2ccc3c(C(F)F)nn(c3c2)CC(C)COC(=O)C2CCCN(N2)C1=O)C(C)C (stereo not drawn) [Compound 203]

# Reference: patent US20240139185A1, “COMPOUNDS THAT PARTICIPATE IN COOPERATIVE BINDING AND USES THEREOF” (Revolution Medicines, Inc., priority 2018, published 2024)
